Reference: patent US20110105565A1, “WATER SOLUBLE SMALL MOLECULE INHIBITORS OF THE CYSTIC FIBROSIS TRANSMEMBRANE CONDUCTANCE REGULATOR” (THE REGENTS OF THE UNIVERSITY OF CALIFORNIA, priority 2008, published 2011)
In brackets after ≈: the same amount, converted by molar mass. Several values for one entry are separate records, joined by “and”; a condition that tells them apart may be missing. Identical values can stand only once.

Columns and labels:
human wildtype CFTR [1] = target: T1, human wildtype CFTR (Homo sapiens, UniProt P13569); assay: Fluorescence cell-based assay of CFTR inhibition (YFP iodide influx, FRT cells); design: expressed in transfected cells; host or cells: Fisher rat thyroid (FRT) cells; details: for CFTR inhibitory activity (in words): structure-activity discussion
Description: CFTR inhibition by thiazolidinone derivative compounds was determined by a fluorescence cell-based assay utilizing doubly transfected cells expressing human wild-type CFTR and a yellow fluorescent protein (YFP) iodide sensor, as described (see, e.g., Galietta, et al., J. Physiol. 281:C1734-C1742 (2001)). Fisher rat thyroid (FRT) cells stably expressing wild-type human CFTR and YFP-H148Q were cultured on 96-well black-wall plates as described (see, e.g., Ma, et al., J. Clin. Invest. 110:1651-1658 (2002)). Cells in 96-well plates were washed three times, and then CFTR was activated by incubation for 15 minutes with an activating cocktail containing 10 μM forskolin, 20 μM apigenin, and 100 μM IBMX. Test compounds were added 5 minutes before assay of iodide influx in which cells were exposed to a 100 mM inwardly directed iodide gradient. YFP fluorescence was recorded for 2 seconds before and 12 seconds after creation of the iodide gradient. Initial rates of iodide influx were computed from the time course of decreasing fluorescence after the iodide gradient.
CFTR-facilitated iodide influx following extracellular iodide addition results in quenching of cytoplasmic YFP fluorescence.

human wildtype CFTR [2] = target: T1, human wildtype CFTR; assay: Short-circuit current measurements, apical chloride current in FRT cells; format: cell-based; design: expressed in transfected cells; host or cells: FRT (Fisher rat thyroid) cells; details: for inhibition of CFTR in short-circuit current analysis (in words): increasing concentration, forskolin-stimulated
Description: Short-circuit current measurements. FRT cells (stably expressing human wildtype CFTR) were cultured on [sequence] filters with 1 cm^2 surface area (Corning-Costar) to resistance >1,000 Ω·cm^2 as described (see, e.g., Ma et al., J. Clin. Invest. 110:1651-1658 ((2002)); Sonawane et al., FASEB J. 20:130-132 (2006)). Filters were mounted in an Easymount Chamber System (Physiologic Instruments, San Diego). For apical current measurements, the basolateral hemichamber contained (in mM): 130 NaCl, 2.7 KCl, 1.5 KH2PO4, 1 CaCl2, 0.5 MgCl2, 10 Na-HEPES, 10 glucose (pH 7.3). The basolateral membrane was permeabilized with amphotericin B (250 μg/ml) for 30 min. In the apical solution 65 mM NaCl was replaced by sodium gluconate, and CaCl2 was increased to 2 mM. Solutions were bubbled with 95% O2/5% CO2 and maintained at 37° C. Current was recorded using a DVC-1000 voltage-clamp (World Precision Instruments) using Ag/AgCl electrodes and 1 M KCl agar bridges.
CFTR was stimulated by cAMP agonist forskolin and increasing concentration of test compounds was added.

[3] = Solubility measurements in saline (PBS, LC/MS); format: physicochemical; details: for solubility in saline / aqueous solubility: values in text, LC/MS; for Solubility in saline: Table 3, PBS, DMSO <2%
Description: Solubility measurements. A saturated compound solution was prepared by addition of DMSO stock to phosphate buffered saline (final DMSO 2%) followed by sonication for 5 min at 25° C. and shaking at room temperature for 1 h. After centrifugation at 15,000 rpm for 1 h, the supernatant was analyzed by LC/MS with concentration determined from area under the curve, standardized against calibration data. A standard curve for each compound was obtained by plotting area under the curve from chromatograms against inhibitor concentration. The concentration range of the standard solutions was 1-15 μM (for 5) and 1-100 μM (other compounds). In all cases, standard curves prepared were linear with r>0.998.
A saturated drug solution of a compound was prepared by addition of the compound in DMSO to phosphate buffered saline (PBS), followed by sonication for 5 min at 25° C. Final concentration of DMSO was <2%. Each saturated solution was centrifuged and filtered. The saturated supernatant solution was diluted and injected into LC/MS. The concentration was determined from area under the curve using a calibration curve.

FRT cells = assay: Cytotoxicity measurements, crystal violet staining of FRT cells; format: cell-based, rat; details: 48 h; for % Cell viability 20 μM / % Cell viability 50 μM: crystal violet staining
Description: Cytotoxicity measurements. FRT cells in confluent monolayers were incubated with compounds for 2 days. Cells were washed 3 times, fixed (cytofix, 30 min) and stained with crystal violet (100 μl, 0.5%, 10 min) using standard procedures. Excess crystal violet was removed by washing, and dye was extracted with Sorenson's buffer (0.1 M sodium citrate, 50% ethanol, pH 4.2). Crystal violet was quantified by measurement of absorbance at 650 nm. The percentage crystal violet staining was determined from test wells measured 8 times, compared to blanks (wells not containing cells) and vehicle-treated cells.
Cytotoxicity analysis was performed for Tetrazolo-172, Oxo-172, α-Me-172 and Pyridine-NO-172 (Compound 17) and compared with CFTRinh-172 (Table 3). […] Crystal violet staining was reduced for Tetrazolo-172 and α-Me-172 at 50 μM.

MDCK cells [4] = assay: MDCK cell cyst model of polycystic kidney disease; format: cell-based, Canine; details: 10 μM
Source text: An MDCK cell model of polycystic kidney disease was used to screen CFTR inhibitors of the thiazolidinone and glycine hydrazide classes for reducing cyst formation and expansion. […] Culture of MDCK cells in three-dimensional collagen gels produces a polarized, single-layer, thinned epithelium surrounding a fluid-filled space, apical […] microvilli, a solitary cilium, and apical tight junctions (see, e.g., McAteer et al., Scan Elect Microsc (Pt 3): 1135-1150, 1986; McAteer et al., Scanning Microsc 2: 1739-1763, 1988; and Taide et al., Eur J Clin Invest 26: 506-513, 1996).
Type I MDCK cells (ATCC No. CCL-34) were cultured at 37° C. in a humidified 95% air/5% CO2 atmosphere in a 1:1 mixture of Dulbecco's modified Eagle's medium (DMEM) and Ham's F-12 nutrient medium supplemented with 10% fetal bovine serum (Hyclone), 100 U/mL penicillin and 100 μg/mL streptomycin. To generate cysts, four hundred MDCK cells were suspended in 0.4 ml of ice-cold Minimum Essential Medium containing 2.9 mg/mL collagen (PuRECOL, Inamed Biomaterials, Fremont Calif.), 10 mM HEPES, 27 mM NaHCO3, 100 U/mL penicillin and 100 μg/mL streptomycin (pH 7.4). The cell suspension was plated onto 24-well plates. After gelation, 1.5 mL of MDCK cell medium containing 10 μM forskolin was added to each well and plates were maintained at 37° C. in a 5% CO2 humidified atmosphere.
The compound structures together with their approximate CFTR inhibition potencies (expressed as IC50 values) are provided in FIGS. 3 and 4. Indicated IC50 values for T01-07, T10, T12-14 were reported by Ma et al. (J Clin Invest 110: 1651-1658 (2002)). IC50 values for T08, T11, and T16 were determined by short-circuit analysis performed according to methods described herein. Indicated IC50 values for G01-05, G8-16 were reported by Sonawane et al. (FASEB J. 20: 130-132 (2006); Sonawane et al., Gastroenterology 132:1234-44 (2007)). IC50 values for G06 and G07 were determined by short-circuit current analysis performed according to methods described herein.
Medium containing forskolin and test compounds was changed every 12 h. At day 6, cysts (with diameters >50 μm) and non-cyst cell colonies were counted by phase-contrast light microscopy at 20× magnification (546 nm monochromatic illumination) using a Nikon TE 2000-S inverted microscope. In some experiments, compounds were added to medium in the continued presence of forskolin from day 4 after seeding and the medium containing forskolin and compounds was changed every 12 h for 8 days. Micrographs showing the same cysts in collagen gels (identified by markings on plates) were obtained every 2 days. For determination of cyst growth, cyst diameters were measured using Image J software. At least 10 cysts/well and 3 wells/group were measured for each condition.

[5] = cited references; cited from earlier work
MDCK cells [6] = assay: MDCK cell cytotoxicity, crystal violet staining; format: cell-based, Canine; details: 20 μM, 72 h
Description: To test whether inhibition of cyst growth could be related to cytotoxicity, certain compounds were tested for their effects on cell viability, cell proliferation and apoptosis. Crystal violet staining was used to assess compound effects on cytotoxicity (see, e.g., Johnson et al., Clin Cancer Res 11: 6924-6932, 2005). MDCK cells were incubated for 24 h on 96-well plates, and then incubated for 72 h with test compounds at 20 μM. Medium was removed and adherent cells were fixed and stained for 30 min with 0.5% crystal violet in 20% methanol. Plates were washed with distilled water, and the stain was extracted with Sorenson's buffer (0.1 mol/L sodium citrate, pH 4.2, in 50% ethanol) overnight at 4° C., and absorbance measured at 570 nm.

[7] = Table 2 summary table, given as ranges, read-out: IC50
[8] = Table 3, inhibition potency, read-out: IC50
[9] = values in text, forskolin-stimulated CFTR, read-out: IC50 (short-circuit current)
[10] = Table 1, upper part, CFTR inhibitory activity, given as ranges, read-out: IC50
[11] = Table 1, lower parts, given as ranges, read-out: IC50

T1 sequence (P13569 whole entry): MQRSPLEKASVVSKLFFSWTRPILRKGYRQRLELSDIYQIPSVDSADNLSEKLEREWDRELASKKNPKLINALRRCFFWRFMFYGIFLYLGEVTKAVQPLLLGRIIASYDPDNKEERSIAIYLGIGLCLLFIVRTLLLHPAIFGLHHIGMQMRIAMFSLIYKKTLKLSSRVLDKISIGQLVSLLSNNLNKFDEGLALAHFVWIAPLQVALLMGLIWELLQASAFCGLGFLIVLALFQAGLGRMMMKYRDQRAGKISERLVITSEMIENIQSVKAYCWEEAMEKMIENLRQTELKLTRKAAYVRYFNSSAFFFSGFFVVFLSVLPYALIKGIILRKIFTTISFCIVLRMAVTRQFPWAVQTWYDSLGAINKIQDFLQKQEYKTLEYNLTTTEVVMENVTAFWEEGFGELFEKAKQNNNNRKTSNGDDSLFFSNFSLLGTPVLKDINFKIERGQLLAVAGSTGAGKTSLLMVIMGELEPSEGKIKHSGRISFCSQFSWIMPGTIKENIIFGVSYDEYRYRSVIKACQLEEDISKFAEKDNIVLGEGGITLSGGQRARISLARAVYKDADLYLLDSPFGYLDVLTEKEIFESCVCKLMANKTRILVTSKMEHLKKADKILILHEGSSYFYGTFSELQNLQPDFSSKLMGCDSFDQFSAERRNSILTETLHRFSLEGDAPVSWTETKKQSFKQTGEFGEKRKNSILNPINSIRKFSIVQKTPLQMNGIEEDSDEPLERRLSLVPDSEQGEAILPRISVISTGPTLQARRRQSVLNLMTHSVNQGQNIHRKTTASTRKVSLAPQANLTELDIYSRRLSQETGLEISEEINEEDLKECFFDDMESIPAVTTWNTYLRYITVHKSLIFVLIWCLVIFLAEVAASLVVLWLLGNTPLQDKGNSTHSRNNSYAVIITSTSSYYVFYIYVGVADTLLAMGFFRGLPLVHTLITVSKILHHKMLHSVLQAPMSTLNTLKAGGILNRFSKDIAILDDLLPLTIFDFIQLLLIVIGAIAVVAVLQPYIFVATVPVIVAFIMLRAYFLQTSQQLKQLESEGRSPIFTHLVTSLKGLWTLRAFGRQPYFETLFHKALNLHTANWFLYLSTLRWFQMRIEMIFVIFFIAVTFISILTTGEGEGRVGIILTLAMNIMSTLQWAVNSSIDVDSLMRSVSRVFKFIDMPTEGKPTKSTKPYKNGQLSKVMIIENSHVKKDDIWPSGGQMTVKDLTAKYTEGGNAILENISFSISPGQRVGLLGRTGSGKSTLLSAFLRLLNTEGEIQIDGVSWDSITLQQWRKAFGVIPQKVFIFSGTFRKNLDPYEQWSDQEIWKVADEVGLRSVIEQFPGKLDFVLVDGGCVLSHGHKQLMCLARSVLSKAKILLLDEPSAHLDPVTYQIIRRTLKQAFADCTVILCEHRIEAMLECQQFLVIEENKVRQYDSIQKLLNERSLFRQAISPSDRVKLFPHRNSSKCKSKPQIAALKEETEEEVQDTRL

SMILES | IC50 (human wildtype CFTR [1]; [7]) | IC50 (human wildtype CFTR [1]; Tables 1 and 2, read-out: IC50 (CFTR inhibition)) | IC50 (human wildtype CFTR [2]; [8]) | inhibition of CFTR in short-circuit current analysis (in words) (human wildtype CFTR [2]) | IC50 (human wildtype CFTR [2]; [9]) | solubility in saline / aqueous solubility [3] | IC50 (human wildtype CFTR [1]; [10]) | % Cell viability 20 μM (FRT cells) | Crystal violet staining at 50 μM (in words) (FRT cells; 50 μM) | % Cell viability 50 μM (FRT cells; 50 μM) | IC50 (human wildtype CFTR [1]; [11]) | CFTR inhibitory activity (in words) (human wildtype CFTR [1]) | water solubility (in words) [3] | effect on MDCK cyst enlargement/formation (in words) (MDCK cells [4]) | Solubility in saline [3] | water solubility [5] | MDCK cell viability (in words) (MDCK cells [6]) | reduction of CFTR inhibition potency relative to CFTRinh-172 (human wildtype CFTR [2]; short-circuit current assays) | increase of solubility in saline/water relative to CFTRinh-172 [3]
O=C1/C(=C/c2cc[n+]([O-])cc2)SC(=S)N1c1cccc(C(F)(F)F)c1 [Compound 17, (Z)-4-((4-oxo-2-thioxo-3-(3-(trifluoromethyl)phenyl)thiazolidin-5-ylidene)methyl)pyridine 1-oxide] | 5 to 10 µM | 5 to 10 µM | 8.7 ± 0.7 µM | dose dependant inhibition | 9 µM and 7 to 9 µM | 264 µM (≈ 101 µg/mL) |  |  |  |  |  |  |  |  |  |  |  |  | 
Cc1c(N2C(=O)/C(=C/c3ccc(C(=O)O)cc3)SC2=S)cccc1C(F)(F)F [Compound 18, (Z)-4-((3-(2-methyl-3-(trifluoromethyl)phenyl)-4-oxo-2-thioxothiazolidin-5-ylidene)methyl)benzoic acid] | 5 to 10 µM |  | 8.2 ± 0.4 µM | dose dependant inhibition | 8 µM and 8 to 10 µM | 259 µM (≈ 110 µg/mL) | 5 to 10 µM | 89% | reduced | 72% |  |  |  |  |  |  |  |  | 
O=C(O)c1ccc(NC(=S)C2SC(=S)N(c3cccc(C(F)(F)F)c3)C2=O)cc1O (centres unmarked) [Compound 52, 2-hydroxy-4-(4-oxo-2-thioxo-3-(3-(trifluoromethyl)phenyl)thiazolidine-5-carbothioamido)benzoic acid] | 10 to 20 µM |  |  |  |  |  |  |  |  |  | 10 to 20 µM | inactive | highly water soluble |  |  |  |  |  | 
O=C(O)c1ccc(/C=C2\SC(=S)N(c3cccc(C(F)(F)F)c3)C2=O)cc1 [Compound 5, (Z)-4-((4-oxo-2-thioxo-3-(3-(trifluoromethyl)phenyl)thiazolidin-5-ylidene)methyl)benzoic acid, reference compound] | 0.1 to 1 µM |  | 0.38 ± 0.04 µM |  | 0.4 µM and 0.25 to 0.5 µM |  | 0.1 to 1 µM | 86% |  |  |  |  |  | inhibited cyst formation, but to a lesser extent | 17 µM (≈ 6.96 µg/mL) | less than 17 μM |  |  | 
O=C1/C(=C/c2cc(Br)c(O)c(Br)c2O)SC(=S)N1c1cccc(C(F)(F)F)c1 [Compound 15, (Z)-5-(3,5-dibromo-2,4-dihydroxybenzylidene)-2-thioxo-3-(3-(trifluoromethyl)phenyl) thiazolidin-4-one] | 5 to 10 µM |  |  |  |  |  | 5 to 10 µM |  |  |  |  | modest inhibition activity |  |  |  |  | reduced MDCK cell viability |  | 
O=C(O)c1ccc(/C=C2\SC(=O)N(c3cccc(C(F)(F)F)c3)C2=O)cc1 [Compound 47, (Z)-4-((2,4-dioxo-3-(3-(trifluoromethyl)phenyl)thiazolidin-5-ylidene)methyl)benzoic acid] | 1 to 2 µM |  | 1.4 ± 0.2 µM | dose dependant inhibition | 1 to 2 µM |  |  | 93% |  | 91% | 1 to 2 µM |  |  |  | 420 µM (≈ 165 µg/mL) |  |  | 3.6 fold | ~25 fold
